Test results from PMC10269622, “Blapstin, a Diapause-Specific Peptide-Like Peptide from the Chinese Medicinal Beetle Blaps rhynchopetera, Has Antifungal Function” (Microbiology Spectrum, 2023).
Bridge positions count the residues as written; N and C are the ends. Ends that are not written are not given here.

Columns and labels:
[1] = system: human erythrocytes; assay: Hemolysis assay; type: cell-based; conditions: concentration as high as 56.25 μM, 30 min, 37°C; 1% Triton X-100 as maximum hemolysis; three independent experiments
Procedure: As previously reported ([65], [67]), hemolytic activity and cytotoxicity assays were performed using human erythrocytes and mouse macrophages (RAW 264.7 cells). These cells were obtained from Kunming Medical University and Cell Bank of Kunming Institute of Zoology, Chinese Academy of Sciences, respectively. To investigate the hemolytic activity, washed erythrocytes were diluted with normal saline into a suspension of 10^7 to 10^8 cells/mL and mixed with serial dilutions of blapstin (from 1.76 μM to 225 μM) at a 1:1 ratio, followed by incubation for 30 min at 37°C. Then, these erythrocytes were centrifuged for 15 min at 500 × g (Eppendorf, Germany; FA-45-24-11, 4°C). Next, the supernatant was collected, and the hemolysis rate (%) was measured to quantify the hemolysis of blapstin. The maximum hemolysis rate was determined using an equal volume of 1% Triton X-100 as a positive control, and the zero hemolysis rate was determined using sterile normal saline as a negative control. Hemolytic activity was calculated using the following formula: hemolysis rate (%) = (hemolysis of experimental group-negative control)/(hemolysis of positive control-negative control) × 100%. HC50 values were defined as the peptide concentrations causing 50% hemolysis of human erythrocytes.

[2] = system: C. albicans ATCC 10231 biofilm; assay: CLSM live/dead (FDA/PI) staining of biofilm; type: cell-based, Candida albicans; conditions: 8× MIC, among 0.5× to 8× MIC; 48 h, 37°C
Procedure: Blapstin at various concentrations (500 μL) was added to 500 μL of the prepared fungal suspension of C. albicans ATCC 10231 (2 × 10^5 CFU/mL) in a sterile 24-well plate to ensure that the final concentration of blapstin ranged from 0.5× to 8× MIC; the plate was incubated for 48 h at 37°C, followed by washing with PBS two to three times to remove unadhered fungal cells. Then, 10 μg/mL of FDA (Solarbio, Beijing, China) and 5 μg/mL of PI (Solarbio, Beijing, China) were added for costaining in the dark for 30 min and washed with PBS twice, as described previously ([68]). Subsequently, the plates were observed using a CLSM (FV 1000; Olympus, Germany). The FDA and PI were excited at 488 nm and 555 nm, respectively, for imaging. Cell viability was assessed based on fluorescence staining; living cells hydrolyze FDA, resulting in the accumulation of green fluorescence, whereas dead cells are stained red by PI. Fluconazole at 10 μΜ and clotrimazole at 10 μΜ were used as a positive control, and sterile 0.9% NaCl was used as a negative control. Green or red fluorescence intensity was calculated using Image J.

[3] = system: Staphylococcus aureus ATCC 6538; assay: MIC, broth double dilution; type: cell-based; conditions: 96-well plate, 37°C, 16 h, absorbance at 600 nm, mean of three independent experiments, ND = no bacteriostatic activity
Procedure: (§1) The standard strain of C. albicans (ATCC 10231), three clinically isolated antibiotic-resistant strains (C. albicans 0065, C. albicans 0063, and C. albicans 6), E. coli (ATCC 8739), and S. aureus (ATCC 6538) were obtained from Kunming Medical University. T. rubrum was purchased from BeNa Culture Collection (BNCC, CAS no. 340195). Different strains of C. albicans, E. coli, and S. aureus were cultured with shaking at 37°C in YM medium and Luria-Bertani (LB) medium. T. rubrum was cultured at 28°C in potato dextrose agar (PDA) medium according to the manufacturer’s instructions.
(§2) According to CLSI protocols, the MIC is determined as a point where there is “zero detectable growth,” The MIC of blapstin against different fungal strains was determined by use of the double dilution method, namely, broth dilution determination. In brief, the different strains were grown in their corresponding media at 28°C or 37°C until they reached the exponential growth phase. Colistin E and fluconazole were used as positive controls. Blapstin was diluted to various concentrations in sterile saline: 100 μL of sterile saline was added to the second well of a sterile 96-well plate, and then 100 μL of blapstin was added to the first and second wells. The solution from the second well was double-diluted with sterile saline until the 11th well, from which 100 μL was removed. In the 12th well, no blapstin was added, and sterile saline was used as a negative control. Afterward, 100 μL of the diluted microbial solution was added to each well, followed by incubation at 37°C for 16 h. To assess the antifungal activity of blapstin against the T. rubrum strain, the spore germination rates were first determined microscopically with a hemocytometer. T. rubrum was diluted with normal saline to 1 × 10^5 CFU/mL and then incubated with various concentrations of blapstin at 28°C for 16 h. The absorbance at 600 nm was measured by a microplate reader (Epoch Etock; Biotek, USA) to estimate the inhibition of bacteria and fungi by blapstin.

[4] = system: Escherichia coli ATCC 8739; assay: MIC, broth double dilution; type: cell-based; conditions: 96-well plate, 37°C, 16 h, absorbance at 600 nm, mean of three independent experiments, ND = no bacteriostatic activity
Procedure: as §1, §2

[5] = system: C. albicans ATCC 10231; assay: Cryo-SEM membrane morphology; type: cell-based, Candida albicans; conditions: 1× MIC, 10 μL on filter paper disk, YM solid medium
Procedure: Cryo-SEM was used to examine membrane morphology as previously described with minor modifications ([65]). C. albicans ATCC 10231 was cultured in a nutrient YM solid medium. Sterilized 5-mm-diameter filter paper disks were placed on the surface of the medium, and 10 μL (1× MIC) of blapstin was added to the disks. Sterile 0.9% NaCl was used as the blank control. Fungi treated with blapstin were observed using cryo-SEM with a Quorum pp3010t system (Sigma 300; Carl Zeiss, Germany).

[6] = system: C. albicans ATCC 10231; assay: Fungus-killing kinetics (colony counting); type: cell-based, Candida albicans; conditions: 5× MIC, 2 × 10^5 CFU/mL in YM broth, 37°C, three independent experiments
Procedure: The in vitro killing curve for blapstin against C. albicans was determined as described previously with minor modifications ([66]). In brief, C. albicans ATCC 10231 was diluted to 2 × 10^5 CFU/mL with sterile YM liquid broth. Different concentrations of blapstin (1×, 5×, and 10× MIC) were added to the fungal suspension and cultured at 37°C for various periods (0, 1, 10, 30, 60, and 180 min). Colistin E (1×, 5×, and 10× MIC) was used as a positive control, and 0.9% NaCl was used as a negative control. Within the specified time interval after incubation, the fungal suspensions were diluted 1,000-fold with YM medium, and 100 μL of the diluted fungal suspension was inoculated on YM solid medium. After incubation at 37°C for 24 h, colony counting was performed and the results were expressed as CFU per milliliter.

In the case of “VRVGPCDQVCSRTNPEKDECCRAHGHSGHSSCYGGRMNCYG (disulfide 6-21, 10-32, 20-39 (inferred)) [Blapstin]”, the “Hemolytic activity against human erythrocytes” value [1] is reported as “little hemolytic activity”, the “Effect on biofilm activity (FDA-labeled live / PI-labeled dead cells, CLSM)” value [2] is reported as “greatest effect” and the MIC [3] is reported as “did not affect”. For the same sequence, the MIC [4] was “did not affect”, the “Membrane morphology under cryo-SEM” value [5] was “membrane shrinkage and disruption of the plasma membrane” and the “Time to kill C. albicans ATCC 10231” value [6] was “less than 60 min”.
